Data reported in US8436006B2, “2-amino-quinazoline derivatives useful as inhibitors of β-secretase (BACE)” (Jansssen Pharmaceutica N.V., priority 2004, dated 2013).

Target: T1, β-secretase (BACE) (Homo sapiens, UniProt P56817)
T1 construct: purchased Panvera
Assay: BACE FS1% Inhibition Assay (Example 160)
Type: biochemical
Procedure: The following reagents were used in this assay: sodium acetate, PEB8000 (Sigma), DMSO, HEPES, FS1 substrate [[…]], β-secretase (BACE) (Panvera), and 96-well plate (HE microplate, Molecular Devices). […] The FS1-substrate stock solution was prepared in DMSO as a 10 mg/mL solution. The FS1-substrate working solution was prepared by diluting the 10 mg/mL stock solution with substrate assay buffer to a final concentration of 300 μg/mL. The β-secretase (BACE) working solution was prepared by diluting a 0.83 mg/mL BACE stock solution with enzyme assay buffer to a final concentration of 4 μg/mL. Test compounds were dissolved in DMSO to 10 mM. […] The screening procedure for this assay was as follows: 15 μL of BACE working solution was pipetted into each well of a 96-well plate. To each well was the pipetted 2 μL of test compound at the selected concentration. Test compound and BACE were then mixed with a pipettor and incubated for 20 min at room temperature. To each well was then added 10 μL of the FS1 substrate working solution. The plates were then incubated for 1 hour at room temperature. […] The procedure for the blank was as follows. 15 μL of assay buffer was pipetted into each well to be used as a blank control. To each well was then added 2 μL of vehicle and 10 μL of FS1-substrate working solution. The plates were then incubated for 1 hour at room temperature. […] The procedure for the positive control was as follows: 15 μL of BACE working solution was pipetted into each well to be used as a positive control. To each well was then pipetted 2 μL of vehicle. Vehicle and BACE were then mixed with a pipettor and incubated for 20 min at room temperature. To each well was then added 10 μL of the FS1 substrate working solution. The plates were then incubated for 1 hour at room temperature. […] For test compounds, % inhibition was determined at each concentration as follows: [formula]

T1 sequence (P56817 46-501): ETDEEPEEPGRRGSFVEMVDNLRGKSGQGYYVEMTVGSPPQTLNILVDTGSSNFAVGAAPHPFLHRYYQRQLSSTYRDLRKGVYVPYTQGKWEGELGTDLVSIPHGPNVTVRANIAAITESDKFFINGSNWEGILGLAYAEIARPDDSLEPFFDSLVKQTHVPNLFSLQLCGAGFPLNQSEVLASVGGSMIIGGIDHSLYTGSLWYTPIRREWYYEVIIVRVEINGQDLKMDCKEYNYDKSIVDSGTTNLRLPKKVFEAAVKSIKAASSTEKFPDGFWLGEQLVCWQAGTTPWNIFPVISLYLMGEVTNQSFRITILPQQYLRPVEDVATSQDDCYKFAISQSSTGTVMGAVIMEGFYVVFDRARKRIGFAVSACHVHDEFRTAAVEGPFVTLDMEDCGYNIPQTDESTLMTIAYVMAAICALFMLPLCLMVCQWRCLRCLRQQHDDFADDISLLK

Structure (SMILES)	% Inhibition (FS) (0.3 μM test compound) [%]	% Inhibition (FS) (1 μM test compound) [%]	% Inhibition (FS) (3 μM test compound) [%]	% Inhibition (FS) (0.3 μM test compound, 0.3 µM) [%]	% Inhibition (FS) (1 μM test compound, 1 µM) [%]	% Inhibition (FS) (3 μM test compound, 3 µM) [%]
CN(Cc1csc(-c2ccccc2)n1)C(=O)CC[C@@H](C1CCCCC1)N1Cc2cc(-c3ccccc3F)ccc2N=C1N [Compound 722]	35	35	78			
NC1=Nc2ccc(-c3ccc4ccccc4c3)cc2CN1CCNC(=O)C1CCCC1 [Compound 664]	<30	<30	<30			
CN(C(=O)CCC(C1CCCCC1)N1Cc2cc(Oc3ccccc3)ccc2N=C1N)C1CCC(C#N)CC1 (stereo not shown) [Compound 769]	<30	61				
CCCCC(CC)C(=O)NCCN1Cc2cc(-c3cnc4ccccc4c3)ccc2N=C1N (stereo not shown) [Compound 676]	33	<30	44			
Cc1ccccc1-c1ccc2c(c1)CN(CCNC(=O)CCC(F)(F)F)C(N)=N2 [Compound 678]	51	88	99			
CN(C(=O)CCC(C1CCCCC1)N1Cc2cc(Oc3ccccc3)ccc2N=C1N)c1ccc(C(=O)O)cc1 (stereo not shown) [Compound 766]	<30	<30	<30			
CC(=O)N1CCC(C(=O)NCCN2Cc3cc(-c4ccccc4Cl)ccc3N=C2N)CC1 [Compound 691]	<30	<30	51			
NC1=Nc2ccc(Oc3ccccc3)cc2CN1CCNC(=O)C1(c2ccc(Cl)cc2)CCCC1 [Compound 196]	65	96	120			
COc1cccc(F)c1-c1ccc2c(c1)CN(CCNC(=O)C1CCC(C(F)(F)F)CC1)C(N)=N2 (stereo not shown) [Compound 700]	<30	36	85			
CC(CC(=O)NCCN1Cc2cc(-c3ccccc3Cl)ccc2N=C1N)C(F)(F)F (stereo not shown) [Compound 683]	64	86				
CCCC(=O)NCCN1Cc2cc(-c3cnc4ccccc4c3)ccc2N=C1N [Compound 673]	34	<30	<30			
COC1CCCC(C(=O)NCCN2Cc3cc(C4=CCCC4)ccc3N=C2N)C1 (stereo not shown) [Compound 706]	<30	<30	<30			
NC1=Nc2ccc(-c3ccc4ccccc4c3)cc2CN1CCNC(=O)C12CC3CC(CC(C3)C1)C2 [Compound 665]	35	<30	<30			
CN(C(=O)CC[C@@H](C1CCOCC1)N1Cc2cc(Oc3ccccc3)ccc2N=C1N)[C@H]1CC[C@H](C(=O)O)CC1 [Compound 746]	85	104	112			
CCCCCC(CCC(=O)NC1CCCCC1)N1Cc2cc(Oc3ccccc3)ccc2N=C1N (stereo not shown) [Compound 149]	32	71	111			
CN(C(=O)CCC(C1CCCCC1)N1Cc2cc(Oc3ccccc3)ccc2N=C1N)C1CCC(O)CC1 (stereo not shown) [Compound 639]				<30	<30	48
CN(C(=O)CC[C@@H](C1CCCCC1)N1Cc2ccc(Oc3ccccc3)cc2N=C1N)C1CCCCC1 [Compound 754]	8	35	89			
COc1ccccc1-c1ccc2c(c1)CN(CCNC(=O)C1CCOCC1)C(N)=N2 [Compound 697]	<30	<30	63			
CC(C)CCC(=O)NCCN1Cc2cc(-c3ccc4ccccc4c3)ccc2N=C1N [Compound 668]	<30	<30	<30			

Structure (SMILES)	% Inhibition (FS) (0.3 μM test compound) [%]	% Inhibition (FS) (1 μM test compound) [%]	% Inhibition (FS) (3 μM test compound) [%]	% Inhibition (FS) (0.3 μM test compound, 0.3 µM) [%]	% Inhibition (FS) (1 μM test compound, 1 µM) [%]	% Inhibition (FS) (3 μM test compound, 3 µM) [%]
COc1ccccc1-c1ccc2c(c1)CN(CCNC(=O)C1CCC(C(F)(F)F)CC1)C(N)=N2 (stereo not shown) [Compound 698]	<30	<30	64			
CN(CC(=O)O)C(=O)CCC(C1CCCCC1)N1Cc2cc(Oc3ccccc3)ccc2N=C1N (stereo not shown) [Compound 767]	<30	71				
COc1ccccc1-c1ccc2c(c1)CN([C@@H](CCC(=O)N(C)Cc1cnn(-c3ccccc3)c1)C1CCCCC1)C(N)=N2 [Compound 717]	33	39	72			
CC(CC(=O)NCCN1Cc2cc(-c3ccccc3)ccc2N=C1N)C(F)(F)F (stereo not shown) [Compound 685]	50	90				
NC1=Nc2ccc(-c3ccccc3Cl)cc2CN1CCNC(=O)CCC(F)(F)F [Compound 682]	39	77	97			
CN(C(=O)CCC(C1CCCCC1)N1Cc2cc(Oc3ccccc3)ccc2N=C1N)C1(C(=O)O)CCCCC1 (stereo not shown) [Compound 741]	−48	−38	−25			
CCCCC(CC)C(=O)NCCN1Cc2cc(-c3ccc4ccccc4c3)ccc2N=C1N (stereo not shown) [Compound 669]	<30	<30	32			
NC1=Nc2ccc(-c3ccccc3Cl)cc2CN1CCNC(=O)C1CCOCC1 [Compound 689]	33	82				
COc1ccccc1-c1ccc2c(c1)CN([C@@H](CCC(=O)N(C)Cc1csc(-c3ccccc3)n1)C1CCCCC1)C(N)=N2 [Compound 716]	<30	<30	72			
COC(=O)Cc1cccc(CN(C)C(=O)CCC(C2CCCCC2)N2Cc3cc(Oc4ccccc4)ccc3N=C2N)c1 (stereo not shown) [Compound 775]	<30	62				
Cc1ccccc1-c1ccc2c(c1)CN(CCNC(=O)CC(C)C(F)(F)F)C(N)=N2 (stereo not shown) [Compound 679]	78	99				
CC(C)(C)C(=O)NCCN1Cc2cc(-c3cnc4ccccc4c3)ccc2N=C1N [Compound 674]	36	<30	41			
CC(=O)N1CCC(C(=O)NCCN2Cc3cc(C4=CCCCC4)ccc3N=C2N)CC1 [Compound 705]	<30	<30	<30			
COC1CCCC(C(=O)NCCN2Cc3cc(-c4ccccc4C)ccc3N=C2N)C1 (stereo not shown) [Compound 696]	<30	72				
NC1=Nc2ccc(-c3ccccc3)cc2CN1CCNC(=O)CCC(F)(F)F [Compound 684]	33	38	78			
NC1=Nc2ccc(-c3cnc4ccccc4c3)cc2CN1CCNC(=O)C12CC3CC(CC(C3)C1)C2 [Compound 672]	<30	<30	<30			
COC(=O)[C@H](COCc1ccccc1)N(C)C(=O)CC[C@@H](C1CCOCC1)N1Cc2cc(Oc3ccccc3)ccc2N=C1N [Compound 786]	97					
CN(C(=O)CCC(C1CCCCC1)N1Cc2cc(Oc3ccccc3)ccc2N=C1N)C1CCC(c2nn[nH]n2)CC1 (stereo not shown) [Compound 770]	<30	<30	<30			
CN(Cc1cccc(CC(=O)O)c1)C(=O)CCC(C1CCCCC1)N1Cc2cc(Oc3ccccc3)ccc2N=C1N (stereo not shown) [Compound 778]	<30	77				
